Laboratory results: US12617818B2, “Compositions and methods for modulating myosin subfragment-2 coiled coil stability and methods for using them” (UNIVERSITY OF NORTH TEXAS, priority 2020, dated 2026)

Columns and labels:
[1] = target: T1, cardiac muscle myosin S2 peptide wild-type (MYH7) (Homo sapiens, UniProt P12883); assay: FRET of cardiac muscle myosin S2 peptide dimer with anti-S2 peptides; type: binding; settings: Cardiac peptide with Stabilizer
T1 construct: The 19 residue peptide was chemically synthesized; purchased BioSynthesis; Inc; host or cells: chemical synthesis
From the text: A small region of myosin subfragment 2 (S2) region of human β-cardiac myosin (MYH7) was selected to be synthesized by BioSynthesis; Inc. The region was selected based on mutations found within this region causing Familial hypertrophic cardiomyopathy (FHC) (Richard et al., 2003). The mutations are located within proximal region of myosin S2 specifically region of 921-939 (FIG. 7). Myosin S2 is an intrinsically unstable coiled coil and the sequence of this region was acquired from Protein Data Bank (PDB). The 19 residue peptide was chemically synthesized. Generated amino acid sequence used is as follow:
Chelate-lanthanide complex was utilized as the donor probe, which is composed of a lanthanide, an antenna, and a chelate. Organic chromophore antenna ([…]) will absorb a photon of light, and it will transfer energy to lanthanide ion (terbium III). This probe excites at 248 nm and emits at 547 nm.
Fluorescein was used as the acceptor probe. […]
In this experiment, luminescence spectrometer, AMNICO-BOWMAN SERIES 2 SPECTROMETER™, was used to detect resonance energy transfer. […] Emission signal generated from decay of molecules was detected by a photomultiplier tube, which contains proper color filters to detect the emitted photons.
FRET measured the dissociation constant (binding affinity) between the myosin S2 dimers and the anti-S2 peptides. […]

[2] = test system: rabbit skeletal myosin (myosin S2 coiled coil); assay: GFS with rabbit skeletal myosin tethered by S1 heads to G-actin; type: biochemical
Procedure: To test stability and flexibility of myosin S2 peptide two different types of conjugation was performed to tether the molecule between the immobile edge and mobile edge. First conjugation was crosslinking the muscle myosin S2 peptides to immobile edge and mobile bead. A different conjugation was benefiting from the binding property of actin to myosin S1. Rabbit skeletal myosin molecule at myosin S1 position was bound with G-actin treated immobile edge and mobile bead.
This conjugation was done by first, treating glass coverslips and silica beads with 0.04% 3-aminopropyltriethoxylsilane in acetone to add the aminosilane groups to both glass coverslips and silica beads. To cross link G-actin to the aminosilanated glass coverslips and silica beads 740 mM 1-ethyl-3-(3 dimethyaminopropyl) carbodiimide was used with help of 60 μM N-hydroxysuccinamide. To block any unreacted group, glycine quenching solution was added. Lastly, both glass coverslips and silica beads went over several washes with low salt buffer and were stored in the same low salt buffer for GFS experiments.
The point of attachment to tether myosin molecule between immobile edge of the coverslip and mobile beads, was at the acto-myosin S1 binding region. The edge of the coverslips and silica beads are coated with G-actin molecules. […]

`C[C@H](NC(=O)[C@H](CCCCN)NC(=O)[C@H](Cc1ccccc1)NC(=O)[C@H](CCCCN)NC(=O)[C@H](CCCCN)NC(=O)[C@H](CCCCN)NC(=O)[C@H](CCCCN)NC(=O)[C@H](CCCCN)NC(=O)[C@H](CCCCN)NC(=O)[C@H](CCCCN)NC(=O)[C@@H](N)CCCCN)C(=O)N[C@@H](CCCCN)C(=O)N[C@@H](CCCCN)C(=O)N[C@@H](CCCCN)C(=O)N[C@@H](CCCCN)C(=O)N[C@@H](CCCCN)C(=O)N[C@@H](CCCCN)C(=O)O` [Stabilizer] was tested, and the “TD (donor lifetime without acceptor)” value [1] was 1.73E−03.

`CSCC[C@H](NC(=O)[C@H](CCC(=O)O)NC(=O)[C@H](CCCNC(=N)N)NC(=O)[C@H](CCC(=O)O)NC(=O)[C@H](CC(=O)O)NC(=O)[C@H](CCC(=O)O)NC(=O)[C@H](CC(C)C)NC(=O)[C@H](CCCNC(=N)N)NC(=O)[C@H](CCC(=O)O)NC(=O)[C@H](CC(N)=O)NC(=O)[C@H](CCSC)NC(=O)[C@@H](N)CCC(=O)O)C(=O)N[C@@H](CCCCN)C(=O)N[C@@H](C)C(=O)N[C@@H](CCC(=O)O)C(=O)N[C@@H](CC(C)C)C(=O)N[C@H](C(=O)N[C@@H](C)C(=O)N[C@@H](CCCCN)C(=O)O)[C@@H](C)O` [Destabilizer] was tested, and the “force required to uncoil myosin relative to absence of peptide (less)” value ([2]; destabilizer peptide vs control) was 1.6 times and the “Force required to uncoil the myosin molecule” value ([2]; length 100 nm, in presence of destabilizer peptide) was 3.09±0.05 pN.
